Test [1] concerns WI38 normal lung fibroblasts. The experiment in a line: CellTiter-Glo luminescent cell viability assay. It counts as cell-based, human. To be noted: 72 hours. The procedure: (§1) Cells were seeded in 96-well plates at a density of 5×10^3 cells per well. 20 μL of CellTiter-Glo® Reagent was added directly to the wells, following the manufacturer's protocol, and bioluminescence signal was determined using an IVIS imaging system.
Cell lines at a concentration of 4×10^3 cells/well were seeded out on an opaque 96-well plate and treated with CB002 and Analog 11 in ranging doses starting from 200 μmol/L with DMSO controls. At 72 hours after treatment, cells were mixed with 30 μL Cell Titer-Glo reagent and after ten minutes of room temperature incubation were imaged using IVIS imaging system (Xenogen).
(§2) To begin establishing the potential of CB002 as a candidate therapeutic agent, its therapeutic index was determined by treating cancer (DLD-1, SW480, and RXF393) and normal (WI38 and MRC5) cell lines with concentrations of CB002 ranging from 0-500 μM for a period of 72 hours and assessing cell viability by the CellTiter-Glo® luminescence assay (see, FIG. 2). CB002 has a significant therapeutic index among the cells tested.

In test [2] the test system is cancer (DLD-1, SW480, and RXF393) cell lines. The experiment in a line: CellTiter-Glo cell viability, panel of cancer cell lines (summary). It counts as cell-based. To be noted: Homo sapiens; 72 hours. The procedure:
as §1, §2
On the technique in general: In ATP-based viability assays light output follows the ATP content of the culture.

For test [3], the system named is p53 reporter (PG13-luc) in DLD-1 cells. Description: luciferase-based p53-reporter activity assay. It counts as cell-based, human. To be noted: 3 and 24 hours. The procedure:
(§3) High-throughput screening was performed using a non-invasive bioluminescence imaging in human colorectal cancer cell lines that stably express a p53-regulated luciferase reporter. Cells were seeded in 96-well plates (Greiner Bio-One) at a density of 1×10^4 cells per well. p53 transcriptional activity was imaged using an IVIS imaging system for a period of 3-4 hours.
(§4) Cell-based screening of p53 transcriptional activity for small molecule CB002 was accomplished using noninvasive bioluminescence imaging in human colorectal cancer cell lines SW480, DLD-1, DLD-1 p73^−/−, HCT116, and HCT116 p53^−/−. These cell lines stably express a p53 reporter, PG13-luc. Cells were seeded in opaque 96-well culture at a density of 5×10^4 cells/well. The cells were treated with CB002 at ranging doses with DMSO controls. Bioluminescence in cells was imaged for p53 transcriptional activity at 2 hours and 24 hours using IVIS imaging system (Xenogen).
(§5) In order to identify small molecules that could restore the p53 signaling pathway, 50,000 small molecules from the Chembridge Library were screened using a firefly luciferase human p53 reporter assay system. SW480 colorectal cancer cells that stably express the human p53 reporter were treated with compounds at various concentrations from 0-100 μM for 2 and 24 hours. […] To further validate the effects of CB002, the screening was expanded by testing effects on p53-dependent reporter activity in DLD-1, wild-type HCT116, and p53-null colorectal cancer HCT116 cell lines. […] Referring to FIG. 1, representative images of luciferase-based p53-reporter activity assays are shown at 3 hours (Panel A). Quantification of the luciferase-based p53-reporter activity assays in three different cell lines incubated from 3-24 hours with CB002 are shown (Panels B-D). p53-reporter activity assays are shown at 2 hours for HCT116 p53-null cells (Panel E).

The test system of test [4] is p53 reporter (PG13-luc) in HCT116 p53-null cells. Description: luciferase-based p53-reporter activity assay. It counts as cell-based, human. Particulars: 3 and 24 hours. As for the experimental part:
as §3, §4, §5

Test [5] deals with p53 reporter (PG13-luc) in wild-type HCT116 cells. The experiment in a line: luciferase-based p53-reporter activity assay. Type of test: cell-based, human. Particulars: 3 and 24 hours. The procedure: as §3, §4, §5
The target in test [6] is T1, endogenous R175H p53 in RXF393 renal cancer cells (Homo sapiens, UniProt P04637, R175H).
T1 construct: RXF393 renal cancer cells that endogenously express R175H p53; endogenous in cells; host or cells: RXF393 renal cancer cells
The experiment in a line: Western blot of mutant p53. Type of test: cell-based. As for the experimental part: After treatment, cells were harvested by trypsinization, washed with PBS, and lysed with RIPA buffer (Sigma-Aldrich) for 30 minutes to 1 hour at 4° C. Protein lysates were spun down and supernatant was collected. Protein quantification was performed using a Pierce™ BCA Protein Assay Kit (Thermo Fisher Scientific). 1×NuPAGE® LDS sample buffer (Thermo Fisher Scientific) and 2-Mercaptoethanol as the reducing agent (Sigma-Aldrich) were added to protein lysates, followed by boiling for 15 minutes at 95° C. Equal total protein amounts samples were loaded into NuPAGE™ Novex™ 4-12% Bis-Tris Protein Gels (1.5 mm, Thermo Fisher Scientific) and gel eletrophoresis was performed with NuPAGE™ MES SDS Running Buffer. Proteins were transferred onto an Immobilon-P membrane (PVDF, EMD Millipore) using a Bio-Rad system with a 10% Tris-Glycine and 10% methanol transfer buffer diluted in distilled and deionized water. After transfer, membranes were blocked with 10% milk in TBST solution and then incubated overnight with primary antibody, washed with TBST and incubated with secondary antibody for 1 hour. Incubations were performed in 5% milk in TBST solution. Signal was detected by using a chemiluminescent detection kit, followed by autoradiography. […]
For orientation: A western blot detects proteins with antibodies after separation by electrophoresis.

Test [7] deals with T2, mutant p53 in DLD-1 cells (Homo sapiens, UniProt P04637, S241F).
T2 construct: endogenous in cells; host or cells: DLD-1 colorectal cancer cells
Description: cycloheximide chase assay. Type of test: cell-based. To be noted: 24 hours treatment, then 100 μg/mL cycloheximide, 0-10 hours. The procedure: (§6) As mutant p53 can acquire a gain-of-function activity, targeting mutant p53 for degradation has been explored as a therapeutic strategy. To investigate the capability of CB002 to impact on mutant p53 protein expression, Western blot analysis was used. […] To confirm these findings, a cycloheximide chase assay was performed. Cells were treated with vehicle control or CB002 for a period of 24 hours. Subsequently, 100 μg/mL cycloheximide was added to the wells and protein lysates were collected at different time points between 0-10 hours. […] Referring to FIG. 6, experiments with SW480 cells (Panels A and B) and analysis of DLD-1 colorectal cancer cells (Panel C) are shown. Cells were treated for a 24 hour period with DMSO, CB002 or positive control followed by 100 μg/mL of cycloheximide addition, and protein stability was evaluated in a time course ranging from 0-10 hours. Histone deacetylase inhibitor, SAHA and Hsp90 inhibitor Geldanamycin (1 μM GA) were used as positive controls.

Test [8] deals with T3, mutant p53 in SW480 cells (Homo sapiens, UniProt P04637, P309S/R273H).
T3 construct: endogenous in cells; host or cells: SW480 colorectal cancer cells
The experiment in a line: cycloheximide chase assay. Particulars: 24 hours treatment, then 100 μg/mL cycloheximide, 0-10 hours. Type of test: cell-based. As for the experimental part: as §6

The structures appear in SMILES notation.

One may read the IC50 as the concentration needed to halve the response being measured. A lower IC50 goes with inhibition by little substance.

With `Cn1c(=O)c2[nH]c(Nc3ccccc3)nc2n(C)c1=O` [CB002, 8-anilino-1,3-dimethyl-3,7-dihydro-1H-purine-2,6-dione], in test [1] (versus SW480, DLD-1, HCT116 and HCT116 p53-null), the “IC50 in Wi38 cells compared with colorectal cancer cells” value is recorded as “much higher”. In addition, the IC50 is 642 µM in test [1] (Homo sapiens, WI-38, WI38 (normal), GraphPad) and 96 to 400 µM in test [2]. Moreover, the p53 reporter activity result in test [3], in test [4] and in test [5] was “induced in a dose-dependent manner” in each case. Besides, the “mutant p53 degradation, with Ganetespib” value in test [6] (96 μM CB002 and/or 0.1 μM Ganetespib, 16 hours) is given as “enhanced CB002-mediated mutant p53 degradation”. For the same compound, the “R175H p53 mutant expression” value in test [6] (100 and 150 μM, 16 and 24 hours) is reported as “decrease R175H p53 mutant expression”. In addition, the “mutant p53 stability” value in test [7] and in test [8] was “did not affect mutant p53 stability” throughout.
